The source of these data is patent publication US12186325B2, “Treatment and prevention of premature ejaculation (PE)” (SEROJAC PME Handels GmbH, priority 2018, dated 2025).

Read-outs that look alike come from different tables or passages of the source. Some results are limits rather than exact numbers.

For data set [1] the following is noted: cited from earlier work.
The subject of data set [2] is premature ejaculation (PE). The data set is described as follows: Case reports: intravaginal ejaculation latency time (IELT) in PE patients. Type of data set: in vivo, human.
Data set [3] in a line: Case reports: tolerability and side effects in PE patients. It counts as in vivo, human.
For data set [4] the following is noted: cited from earlier work; for peak plasma concentration: healthy volunteers.
Data set [5] relates to premature ejaculation (PE). The note with it: cited from earlier work.
A further data set deals with seminal vesicle. The note with it: electrical nerve stimulation (Hsieh et al. 1999); cited from earlier work.
Another data set relates to aged male rats. The note with it: cited from earlier work.
Another data set concerns male rats. The note with it: male rats (Shekar et al. 2017); cited from earlier work.
In a further data set the test system is erectile dysfunction. The data set is described as follows: Case reports: erection / ability to achieve intercourse. Type of data set: in vivo, human. The following applies: Case Report 6; 12 mg yohimbine daily alone, in two doses. An excerpt:
A patient complained about erectile dysfunction and PE.
A patient complained about primary PE and about psychogenic erectile dysfunction.

Where [6] appears, read: metabolite after oral clomipramine.

`COC(=O)[C@@H]1[C@H]2C[C@H]3c4[nH]c5cc(O)ccc5c4CCN3C[C@@H]2CC[C@@H]1O` [11-hydroxy-yohimbine]: the “elimination half-life of active metabolite” value in data set [1] (single-dose yohimbine studies) is listed as 6 h.

With `CN(C)CCCN1c2ccccc2CCc2ccc(Cl)cc21` [clomipramine, 3-(3-chloro-10,11-dihydro-5H-dibenzo[b,f]azepin-5-yl)-N,N-dimethylpropan-1-amine], the IELT after treatment in [2] (Case Report 5, 30 mg clomipramine alone 6 hours before sexual intercourse, before: 1 minute) worked out at 6 min. For the same compound, in [3] (Case Report 5, 30 mg clomipramine alone 6 hours before sexual intercourse), the side effects reported entry is “dizziness, dyspepsia and constipation”. For the same compound, the peak plasma concentration in [4] (single oral dose 50 mg) is 28.8 ± 11.2 ng/mL; in data set [4] (single oral dose 100 mg) it was 70 to 140 ng/mL. For the same compound, in [5] (50 mg clomipramine), the “time to climax in premature ejaculators” value is “more than 8 minutes”. Moreover, the latency to ejaculation result in data set [5] (25 milligrams clomipramine 12 to 24 hours before sexual activity, from about 1.5 to 2 minutes) was “about 8 minutes”.

Take `CNCCCN1c2ccccc2CCc2ccc(Cl)cc21` [desmethylclomipramine]: in data set [4] (after single oral dose of 50 mg clomipramine), the “peak plasma concentration of metabolite” value is 5.0 ± 1.4 ng/mL. In [4] (setting [6]), the half-life was 36 h and the “half-life, upper limit in brackets” value is reported as “up to 9 hours”.

As for `Fc1ccc([C@@H]2CCNC[C@H]2COc2ccc3c(c2)OCO3)cc1` [paroxetine], in data set [2] (Case Report 1, 20 to 40 mg daily for 6 months), the “outcome of earlier PE treatment” value is “unsuccessfully”.

As for `CN[C@H]1CC[C@@H](c2ccc(Cl)c(Cl)c2)c2ccccc21` [sertraline], the “outcome of earlier PE treatment” value in [2] (Case Report 2, 50-100 mg for 16 weeks) is given as “unsuccessfully”.

Turning to `COC(=O)[C@@H]1[C@H]2C[C@H]3c4[nH]c5ccccc5c4CCN3C[C@@H]2CC[C@@H]1O` [yohimbine, 17α-hydroxy-yohimban-16α-carboxylic acid methyl ester], in [2] (Case Report 6, 12 mg yohimbine daily alone), the time of intercourse entry is “no amelioration”. Moreover, the elimination half-life in [1] (single-dose studies, oral or intravenous) is below 1 h. For the same compound, the side effects reported result in data set [3] (Case Report 6, 12 mg yohimbine daily alone, from the second day of treatment) is “diarrhoea”. Also, the “effect on seminal vesicle contractile response” value with seminal vesicle was “can suppress”. Moreover, the “effect on erectile dysfunction” value with aged male rats was “improves erectile dysfunction”. Moreover, the “antagonism of clomipramine-induced sexual dysfunction” value with male rats was “failed to antagonize”. Moreover, the erections result in the data set on erectile dysfunction was “improved erections”.
